Reference: US20230346741A1, “ERIODICTYOL COMPOSITIONS AND METHODS” (CAS PROPERTIES, LLC, priority 2022, published 2023)

Tests used:
[1] = Treatment of a subject with long-COVID syndrome (case report); type: in vivo, human; settings: 60 mg per day (2 x 30 mg capsules) for three months; one subject
Experimental: A subject having a diagnosis of long-COVID syndrome was administered 60 milligrams (mg) eriodictyol (30 mg/vegetarian capsule; 2 capsules daily) per day for three months. The subject reported an over 80% reduction in long-covid symptoms that included a 80% reduction in fatigue, brain fog, difficulty concentrating, difficulty remembering, difficulty finding the right words, and difficulty multi-tasking.

[2] = system: IL-1β secretion, human SV40 microglia cells; experiment: IL-1β secretion by LPS-stimulated human SV40 microglia after pretreatment; type: cell-based; settings: 50 micromolar concentration; pretreated two hours, then LPS stimulation; FIG. 2
Excerpt: Cultured human SV40 microglia cells were pretreated with eriodictyol (Erio) or nobiletin (Nobi) for two hours to determine the degree to which eriodictyol and nobiletin inhibits the secretion of the proinflammatory cytokine interleukin-1β(IL-1β) followed by stimulation by bacteria lipopolysaccharide (LPS).

Chikungunya virus = experiment: Plaque reduction in human microglia cells infected with Chikungunya virus; settings: 100 micromolar concentration; FIG. 1

| SMILES | reduction in fatigue, brain fog, difficulty concentrating, remembering, finding the right words and multi-tasking (subject-reported) [1] [%] | reduction in long-covid symptoms (subject-reported) [1] | inhibition of IL-1β secretion compared with luteolin and methoxyluteolin [2] | potency of plaque inhibition compared with nobiletin (Chikungunya virus) |
| --- | --- | --- | --- | --- |
| O=C1C[C@@H](c2ccc(O)c(O)c2)Oc2cc(O)cc(O)c21 [eriodictyol, (2S)-2-(3,4-Dihydroxyphenyl)-5,7-dihydroxy-2,3-dihydro-4H-1-benzopyran-4-one] | 80 | over 80% | more potent inhibitors of IL-1β secretion as compared to luteolin (Lut) and methoxyluteolin (Methlut) | slightly more potent inhibitor than nobiletin |
| COc1ccc(-c2cc(=O)c3c(OC)c(OC)c(OC)c(OC)c3o2)cc1OC [nobiletin, reference compound] | – | – | more potent inhibitors of IL-1β secretion as compared to luteolin (Lut) and methoxyluteolin (Methlut) | – |
